# Legend:
# [1] = biological target: T1, Poly [ADP-ribose] polymerase tankyrase-1 (Homo sapiens, UniProt O95271); assay: Inhibition of human TNKS1 incubated for 30 mins prior to substrate addition measured after 2 hrs by HTRF method
# T1 sequence (O95271 whole entry): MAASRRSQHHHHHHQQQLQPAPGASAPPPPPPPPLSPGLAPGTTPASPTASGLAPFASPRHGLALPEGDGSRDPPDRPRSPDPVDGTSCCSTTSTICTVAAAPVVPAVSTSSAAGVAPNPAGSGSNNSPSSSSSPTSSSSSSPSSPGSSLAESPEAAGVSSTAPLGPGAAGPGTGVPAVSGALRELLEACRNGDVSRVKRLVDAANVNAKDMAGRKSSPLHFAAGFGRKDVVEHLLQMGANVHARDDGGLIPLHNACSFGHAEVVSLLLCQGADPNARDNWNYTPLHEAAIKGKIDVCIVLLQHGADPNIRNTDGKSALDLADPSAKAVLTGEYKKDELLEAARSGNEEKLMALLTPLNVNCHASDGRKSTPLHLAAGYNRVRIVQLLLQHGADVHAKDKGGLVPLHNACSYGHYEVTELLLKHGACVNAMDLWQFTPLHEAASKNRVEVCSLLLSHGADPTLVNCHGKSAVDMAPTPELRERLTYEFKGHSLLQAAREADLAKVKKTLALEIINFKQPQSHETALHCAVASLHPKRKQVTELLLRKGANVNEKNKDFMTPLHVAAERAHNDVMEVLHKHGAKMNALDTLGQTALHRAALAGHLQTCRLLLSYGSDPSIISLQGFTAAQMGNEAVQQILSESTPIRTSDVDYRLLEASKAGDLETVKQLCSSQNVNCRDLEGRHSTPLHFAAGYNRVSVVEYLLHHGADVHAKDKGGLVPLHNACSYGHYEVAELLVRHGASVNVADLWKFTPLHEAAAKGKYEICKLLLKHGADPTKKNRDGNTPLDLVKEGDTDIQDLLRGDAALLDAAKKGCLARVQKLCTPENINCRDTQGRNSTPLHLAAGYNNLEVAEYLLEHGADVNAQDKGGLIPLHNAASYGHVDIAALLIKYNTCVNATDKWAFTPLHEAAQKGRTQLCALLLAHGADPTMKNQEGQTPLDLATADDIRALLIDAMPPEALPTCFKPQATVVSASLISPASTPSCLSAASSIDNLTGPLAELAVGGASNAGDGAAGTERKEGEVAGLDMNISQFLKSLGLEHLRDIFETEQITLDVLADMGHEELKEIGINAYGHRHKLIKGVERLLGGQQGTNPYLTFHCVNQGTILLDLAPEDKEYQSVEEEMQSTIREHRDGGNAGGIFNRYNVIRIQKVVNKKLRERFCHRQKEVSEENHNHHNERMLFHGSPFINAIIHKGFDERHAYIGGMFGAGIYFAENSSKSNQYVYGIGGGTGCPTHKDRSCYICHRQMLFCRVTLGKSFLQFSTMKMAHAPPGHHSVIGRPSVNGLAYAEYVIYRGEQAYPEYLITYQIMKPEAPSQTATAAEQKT
# [2] = biological target: T1, Poly [ADP-ribose] polymerase tankyrase-1; assay: Inhibition of human TNKS1 after 1 to 2 hrs by fluorescence polarization method
SMILES,IC50 [1] [nM],IC50 [2] [nM]
N#Cc1c(Cn2c(=O)n(C[C@H]3CC[C@H](C(=O)O)CC3)c(=O)c3ccccc32)cccc1C(F)(F)F,31.6,7.94
Cc1c(F)ccc2c1c(=O)n(C[C@H]1CC[C@H](C(=O)O)CC1)c(=O)n2Cc1cccc(C(F)(F)F)c1C#N,50.1,6.31
Cc1cccc2c1c(=O)n(C[C@H]1CC[C@@H](C(=O)O)CC1)c(=O)n2Cc1cccc(C(F)(F)F)c1C#N,316,–

# Source: ChEMBL document CHEMBL3108764, “Tankyrase inhibitors: potential treatment of hyperproliferative diseases” (ACS Med Chem Lett, 2014)
